Data reported in PMC11356900, “Synthesis, Structural Properties and Biological Activities of Novel Hydrazones of 2-, 3-, 4-Iodobenzoic Acid” (Molecules, 2024).

Assay: MTT cytotoxicity assay
Format: cell-based, mouse
Conditions: mouse, L929 fibroblast cells; L929, 48 h culture, dose of 25 μM; read-out: increased viability
Method: Among all the newly synthesized compounds, four compounds designated as: 14, 20, 21 and 27 were selected for further testing of their cytotoxic properties at the doses of 10, 25, 50, 75 and 100 µM. The cytotoxic properties of the above compounds were tested on the cancer cell lines, i.e., A549 (ECACC 86012804) (non-small-cell lung cancer), T47D (ECACC 85102201) (breast cancer), HeLa (ATCC® CCL-2™) (cervical cancer) and normal line L929 (NCTC clone 929, ATCC® CCL-1™) (mouse fibroblasts) using the MTT test for 24- and 48 h cultures.
A549 (ECACC 86012804) (non-small-cell lung cancer) and T47D (ECACC 85102201) (breast cancer) were obtained from ECACC and propagated in Dulbecco’s Minimal Essential Medium, supplemented with 2 mM of glutamine, antibiotics ([…] streptomycin, 1% of 100 U/L penicillin) and 10% Fetal Bovine Serum. HeLa (ATCC® CCL-2™) (cervical cancer) and L929 (NCTC clone 929, ATCC® CCL-1™) (mouse fibroblasts) cell lines were obtained from ATCC and propagated in the Eagle Minimal Essential Medium supplemented with antibiotics ([…] streptomycin, 1% of 100 U/L penicillin) and with 10% and 5% FBS, respectively. The cell line was routinely grown in 75 cm^2 tissue culture flasks and kept in an incubator (humidified atmosphere of 5% CO2 at 37 °C). All examined cell lines were tested against mycoplasma contamination with microbiological assays.
The cell viability of tested compounds (14, 20, 21 and 27) was assessed by the MTT assay. In brief, the exponentially growing cells were plated in 100 μL/well in 96-well plates. After 24 h culturing, the cells were treated with different concentrations of compounds (range 10–100 μM). After 24 and 48 h of incubation, 10 μL of 5 mg/mL MTT was added to each well and the plates were incubated at 37 °C for additional 4 h. The medium was subsequently removed, the purple-colored precipitates of formazan were dissolved in 100 μL of DMSO. The color absorbance was recorded at 570 nm using a BioTek model EPOCH ELISA plate reader. All experiments were performed in triplicate. The absorbance values were in the range of linearity of the Lambert–Beer law.

`O=C(N/N=C/c1cc(I)cc(I)c1O)c1ccccc1I` [Compound 14, N-[(3,5-diiodo-2-hydroxyphenyl)methylidene]-2-iodobenzohydrazide] showed a viability at 48 h, 25 µM of over 100%.
